Experimental data: patent publication US7476401B2, “Protein and peptide delivery to mammalian cells in vitro” (Mirus Bio LLC, priority 2003, dated 2009)

Tested on: HeLa cells
Assay: Protein delivery to HeLa cells, visualized by fluorescence confocal microscopy
Type: cell-based
Details: technique #2, FIG. 2B
Description: HeLa cells were maintained in DMEM containing 10% fetal bovine serum. For polypeptide delivery, cells were plated in 6-well plates containing glass cover slips at a density of 50,000-100,000 cells per well and grown for 24-48 hours before incubation with polypeptide formulations.
Two different techniques were used for contacting polypeptide formulations with cells. In both techniques, cells were grown to 30-70% confluency and washed once with 2 ml 37° C. PBS prior to addition of polypeptide formulations.
Technique #1: Peptide formulations were diluted by addition of 150 μl 37° C. PBS (180-200 μl total volume). Formulations were than added to cells on cover slips. Following a 5 min incubation at room temperature (RT) 0.8 ml 37° C. DMEM was added to each well and cells were again incubated for 5 min at RT. Media was then aspirated off cells and 2.0 ml DMEM containing 10% bovine serum was added. […]
Visualization of polypeptide delivery to cells: In order to visually analyze polypeptide delivery, cells were washed 3× with PBS, fixed for 30 min at 4° C. in PBS containing 4% formaldehyde and washed 3× with PBS. Cover slips were then mounted onto slides for fluorescence microscopy using a Zeiss LSM510 laser confocal microscope. Rhodamine was detected by exciting with a HeNe laser at 543 nm and detecting with a 560 nm long pass filter. […]

modification #26: Rhodamine-labeled Bovine Serum Albumin modified with chlorodimethyloctadecylsilane, dried, hydrated with PBS
uptake of modified protein by cells: uptake of BSA
